US20130004579A1, “Use of Plant Lectins to Target Leukocytes” (priority 2011, published 2013)

Legend:
[1] = test system: IL-1α production by bone marrow-derived dendritic cells (BMDCs); assay: IL-1α ELISA on supernatants of BMDCs incubated with particles; format: cell-based, mouse; settings: C57BL/6 BMDCs; LPS 1 ng/ml; serial dilutions SC-PS 31.25 μg/ml to 1 mg/ml with lectin 1.56 to 50 μg/ml; vs unconjugated SC-PS
Procedure: (§1) BMDCs were isolated and cultured as described in Example 2 at a density of 6.25×10^5 cells/ml in 96 well U-bottomed microplates. Cells were stimulated with a Toll-like receptor (TLR) ligand (LPS or Pam2CSK4) for 6 hours. Cells were then incubated with either medium, alum/SC-PS particles, alum/SC-PS particles conjugated with UEA-1, alum/SC-PS particles conjugated with UEA-1 mimetic or with UEA-1 alone for 24 hours. After incubation, supernatants from BMDCs were collected and cytokine concentrations measured by ELISA. Antibody pairs specific for each cytokine were used for immunoassaying. The following cytokines were measured by immunoassay: IL-1α, IL-1β.
(§2) Capture antibodies were obtained from BD Pharmingen (San Diego, Calif.), BioLegend (San Diego, Calif.) and R&D Systems, Inc. (Minneapolis, Minn.) and prepared according to the manufacturer's specifications (see Table 2) and a volume of 40 μl/well added to high-binding 96 well ELISA plates. Plates were then incubated for 2 hours at 37° C. or overnight at 4° C. After incubation, plates were washed in PBS-T (×3) and tapped dry. Plates were then blocked with the appropriate blocking solution (see Table 2) and incubated for 2 hours at 37° C. After incubation plates were washed in PBS-T (×3) and tapped dry. Supernatants were transferred from cell culture plates to fresh 96 well plates. All supernatants were stored at −20° C. when not in use. Cell supernatants were applied to plates at the indicated dilutions (see Table 2). A blank triplicate was left on each plate containing the diluent as a blank. Standards were prepared at the starting concentration in the recommended diluent as specified by the manufacturer and transferred to a 96 well plate and serial dilutions (1:2) performed (see Table 2). All standards and samples were applied to plates at 40 μl/well total volume for incubation overnight at 4° C. After incubation plates were washed with PBS-T (×5) and tapped dry. […] Plates were then stopped by the addition of 20 μl/well of 1M H2SO4 and read. […]

[2] = test system: IL-1β production by bone marrow-derived dendritic cells (BMDCs); assay: IL-1β ELISA on supernatants of BMDCs incubated with particles; format: cell-based, mouse; settings: C57BL/6 BMDCs; LPS 1 ng/ml; serial dilutions SC-PS 31.25 μg/ml to 1 mg/ml with lectin 1.56 to 50 μg/ml; vs unconjugated SC-PS
Procedure: as §1, §2

[3] = test system: IL-1α production by BMDCs from NLRP3−/− mice; assay: IL-1α ELISA on supernatants of NLRP3−/− BMDCs; format: cell-based, mouse; settings: SC-PS 31.25 μg/ml to 1 mg/ml, lectin 1.56 to 50 μg/ml, vs untargeted particles
Procedure: as §1
(§3) Capture antibodies were obtained from BD Pharmingen (San Diego, Calif.), BioLegend (San Diego, Calif.) and R&D Systems, Inc. (Minneapolis, Minn.) and prepared according to the manufacturer's specifications (see Table 2) and a volume of 40 μl/well added to high-binding 96 well ELISA plates. Plates were then incubated for 2 hours at 37° C. or overnight at 4° C. After incubation, plates were washed in PBS-T (×3) and tapped dry. Plates were then blocked with the appropriate blocking solution (see Table 2) and incubated for 2 hours at 37° C. After incubation plates were washed in PBS-T (×3) and tapped dry. […] Plates were then stopped by the addition of 20 μl/well of 1M H2SO4 and read. […]

[4] = test system: IL-1β production by BMDCs from NLRP3−/− mice; assay: IL-1β ELISA on supernatants of NLRP3−/− BMDCs; format: cell-based, mouse; settings: SC-PS 31.25 μg/ml to 1 mg/ml, lectin 1.56 to 50 μg/ml
Procedure: as §1, §3

BALB/c mice = assay: OVA-specific cytokine responses of peritoneal cells after i.p. immunization; format: in vivo, mouse; settings: i.p. days 0 and 35, day 42; OVA 100 μg/ml restimulation; comparison with OVA-loaded PS particles
Procedure: Five groups of 6-8 week old female BALB/c mice (five mice per group) were i.p, immunized on day 0 with a total volume of 200 μl of vaccine. All ovalbumin (OVA) used was endotoxin-free. The groups were:
On day 34, blood was collected from the tail vein of each mouse and used to measure serum antibody titres. The following day, mice were i.p. immunized with an identical series of booster vaccinations as on day 0. Mice were sacrificed on day 42 by cervical dislocation, and cells were harvested.
Spleens were removed from the mice, and single cell suspensions prepared as described above. Peritoneal lavages were also performed. Cells were plated onto 96 well U-bottomed plates at cell densities of 2×10^6 cells/ml for splenocytes and 1×10^6 cells/ml for peritoneal lavage cells in 200 μl of complete RPMI 1640 medium per well.
Cells were stimulated in vitro with PBS, endotoxin-free OVA (50 μg/ml, 100 μg/ml, 500 μg/ml), phorbol myristate acetate (PMA, 25 ng/ml) combined with anti-CD3 (1 μg/ml) or anti-CD3 alone (0.5 μg/ml). Cells were incubated with antigen for 3 days. Supernatants were then removed and IL-5, IL-10, IL-17 and IFN-γ cytokine concentrations were determined by ELISA. […]

| Molecule | TLR-4 agonist-primed IL-1α production [1] | TLR-4 agonist-primed IL-1β production [2] | IL-1α production in the absence of NLRP3 [3] | IL-1β production in the absence of NLRP3 [4] | antigen-specific IL-5 by peritoneal cells (BALB/c mice) | antigen-specific IL-17 by peritoneal cells (BALB/c mice) |
| --- | --- | --- | --- | --- | --- | --- |
| PHA-L: SC-PS particles conjugated with biotinylated Phaseolus vulgaris leukoagglutinin | greatly increased IL-1α production and remained effective across four of the five serial dilutions | greatly increased IL-1β production and remained effective across four serial dilutions | enhances IL-1α production | not IL-1β production |  |  |
| PHA-E: SC-PS particles conjugated with biotinylated Phaseolus vulgaris erthyroagglutinin | greatly increased IL-1α production and remained effective across four of the five serial dilutions | greatly increased IL-1β production and remained effective across four serial dilutions | enhances IL-1α production | not IL-β production |  |  |
| OVA alone: endotoxin-free ovalbumin antigen, 50 μg/mouse, without particles (protein, UniProt P01012 2-386, looked up, endotoxin-free, endotoxin-free ovalbumin antigen, 50 μg/mouse, without particles) Ovalbumin: GSIGAASMEFCFDVFKELKVHHANENIFYCPIAIMSALAMVYLGAKDSTRTQINKVVRFDKLPGFGDSIEAQCGTSVNVHSSLRDILNQITKPNDVYSFSLASRLYAEERYPILPEYLQCVKELYRGGLEPINFQTAADQARELINSWVESQTNGIIRNVLQPSSVDSQTAMVLVNAIVFKGLWEKAFKDEDTQAMPFRVTEQESKPVQMMYQIGLFRVASMASEKMKILELPFASGTMSMLVLLPDEVSGLEQLESIINFEKLTEWTSSNVMEERKIKVYLPRMKMEEKYNLTSVLMAMGITDVFSSSANLSGISSAESLKISQAVHAAHAEINEAGREVVGSAEAGVDAASVSEEFRADHPFLFCIKHIATNAVLFFGRCVSP |  |  |  |  | stronger | stronger |
